Some results are limits rather than exact numbers.

The nature of one series: Acute toxicities (LD50). As to conditions: mouse, in vivo, ip; ICR male mice, 5 weeks old, intraperitoneal. How it is done:
For determining acute toxicities ICR male mice, 5 weeks old, were used. The drug was administered intraperitoneally.

Another series deals with tumors. Particulars: Japanese Patent Publication (Kokai) No. 53-5162; cited from earlier work.
The conditions of series [1]: Japanese Patent Publication (Kokai) No. 53-5162; cited from earlier work.
In a further series the test system is Lewis lung carcinoma. Briefly: Antitumor effect on experimental tumors in mice, Lewis lung carcinoma (solid), tumor inhibitory ratio. Format: in vivo, BDF1 male mice. Particulars: 100 mg/kg, i.p., schedule 5q2d (day 1, 3, 5, 7 and 9), tumors weighed at day 13. How it is done: The antitumor activities of the compounds of the present invention were estimated according to the methods described in "Cancer chemotherapy reports" Part 3, Vol. 3, (No. 2) p. 13 (1972).
For determining antitumor activities, BDF1 male mice, 5 weeks old, weighing between 18 and 22 grams were used. Each test group was composed of 6 to 7 mice. Two million cells of Lewis Lung Carcinoma were injected in the hind leg. The drug was administered intraperitoneally at day 1, 3, 5, 7 and 9 (or 5q2d).
After killing the mice at day 13, tumors were removed and weighed. The tumor inhibitory ratio was calculated according to the following formula. [formula]

By LD50 is commonly meant the dose at which mortality reaches 50%. A higher LD50 goes with lower toxicity. In the series “Acute toxicities (LD50)”, `NC(=O)c1[nH]cnc1OC(=O)C12CC3CC(CC(C3)C1)C2` [Compound (IV), 5-Carbamoyl-1H-imidazole-4-yl adamantane-1'-carboxylate] gave an LD50 of 250 to 297 mg/kg. The “antitumor activity, known (in words)” value with tumors was “antitumor and immunosuppressive activity”. Also, the “immunosuppressive activity, known (in words)” value in series [1] was “immunosuppressive activity”.
Take `NC(=O)c1[nH]cnc1OC(=O)C12CC3CC(CC(Br)(C3)C1)C2` [5-carbamoyl-1H-imidazole-4-yl 3'-bromoadamantane-1'-carboxylate]: the “Inhibition Ratio, Lewis lung carcinoma (solid)” value (shortened to “Inhibition Ratio”) in the series with Lewis lung carcinoma amounted to 66.2%. In the series “Acute toxicities (LD50)”, the LD50 lay in the range of 670 to 1000 mg/kg.
For `NC(=O)c1[nH]cnc1OC(=O)C12CC3CC(CC(F)(C3)C1)C2` [5-carbamoyl-1H-imidazole-4-yl 3'-fluoroadamantane-1'-carboxylate] the same measures were 65% and 670 to 1000 mg/kg.
As for `NC(=O)c1[nH]cnc1OC(=O)C12CC3CC(CC(Cl)(C3)C1)C2` [5-carbamoyl-1H-imidazole-4-yl 3'-chloroadamantane-1'-carboxylate], the “Inhibition Ratio” value with Lewis lung carcinoma is 71.1%. This compound displayed a median lethal dose (LD50) in “Acute toxicities (LD50)” of over 1000 mg/kg.
Take `NC(=O)c1[nH]cnc1OC(=O)C12CC3CC(C1)CC(c1ccccc1)(C3)C2` [5-carbamoyl-1H-imidazole-4-yl 3'-phenyladamantane-1'-carboxylate]: the “Inhibition Ratio” value in the series on Lewis lung carcinoma is on record as 85.7%.
Take `CC12CC3(C)CC(C)(C1)CC(C(=O)Oc1nc[nH]c1C(N)=O)(C2)C3` [5-carbamoyl-1H-imidazole-4-yl 3',5',7'-trimethyladamantane-1'-carboxylate]: the “Inhibition Ratio” value in the series with Lewis lung carcinoma is on record as 90%. This compound showed an LD50 in “Acute toxicities (LD50)” of 670 to 1000 mg/kg.
